# Measurements from US6727279B2, “Arylsulphonamides and analogues” (Bayer Aktiengesellschaft, priority 1998, dated 2004).
# Target: T1, rat CB1 receptor (Rattus norvegicus, UniProt P20272)
# T1 construct: contains an open reading frame of 1419 base pairs which corresponds to a protein of 473 amino acids; expressed in transfected cells; host or cells: CHOluc9 cells (CHO luciferase reporter line), stably transfected with pRc/CMV-based plasmid CMV-RH
# Experiment: CB1 luciferase reporter gene test
# Format: cell-based
# Details: CHOluc9 cells stably transfected with rat CB1, forskolin-stimulated luciferase; read-out: IC50 (nmol/l), activity in the rat CB1 receptor luciferase receptor gene test
# From the text: CB1—Luciferase Reporter Gene Test
# 1. Cloning of the Rat Cannabinoid Receptor CB1
# Total RNA from rat brain (the tissue was taken from freshly killed animals and shock-frozen in liquid nitrogen) was isolated by acidic guanidinium thiocyanate/phenol/chloroform extraction (J. Biol. Chem. 1979, 18, 5294) and converted into cDNA by means of reverse transcriptase and random primers (in each case from Invitrogen). […] This PCR product was subcloned into the TA cloning vector (Invitrogen) and the nucleotide sequence of the insert was determined by the dideoxynucleotide chain termination reaction using T7DNA polymerase (Sequenase, USA/Amersham). The insert has a length of 1477 base pairs and contains an open reading frame of 1419 base pairs which corresponds to a protein of 473 amino acids. The number of base pairs, the position of the open reading frame and the number of amino acids agree with the published sequence. […]
# T1 sequence (P20272 whole entry): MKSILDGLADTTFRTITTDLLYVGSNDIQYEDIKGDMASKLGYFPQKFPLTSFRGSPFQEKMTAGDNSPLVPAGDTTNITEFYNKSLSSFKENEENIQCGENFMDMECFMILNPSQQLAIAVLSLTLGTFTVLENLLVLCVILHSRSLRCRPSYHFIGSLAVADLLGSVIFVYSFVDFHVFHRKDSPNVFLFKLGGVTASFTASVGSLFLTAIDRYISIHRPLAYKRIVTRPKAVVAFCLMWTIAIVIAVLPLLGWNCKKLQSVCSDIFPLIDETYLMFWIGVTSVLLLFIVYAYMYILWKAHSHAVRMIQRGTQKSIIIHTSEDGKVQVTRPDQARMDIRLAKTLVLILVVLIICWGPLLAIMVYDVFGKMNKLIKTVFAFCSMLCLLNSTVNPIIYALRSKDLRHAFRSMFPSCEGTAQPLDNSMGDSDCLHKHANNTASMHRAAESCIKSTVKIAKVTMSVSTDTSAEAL
structure (smiles),measurement,value
"O=S(=O)(CCCC(F)(F)F)Oc1cccc(Oc2cccc3cc(CO)oc23)c1 [Example 1, 2-Hydroxymethyl-7-[3-(4,4,4-trifluorobutyl-1-sulphonyloxy)phenyl-1-oxy]-benzofuran]",IC50,0.55 nmol/L
